Laboratory results published in paper PMC4823954, “From fighting depression to conquering tumors: a novel tricyclic thiazepine compound as a tubulin polymerization inhibitor” (Cell Death & Disease, 2016).

Assays:
Experiment in all cases: KINOMEscan
Assay type in all cases: binding
Details in all cases: read-out: % Ctrl
CDK3 = molecular target: T1, CDK3 (Homo sapiens, UniProt Q00526)
T1 construct: purchased DiscoveRx KINOMEscan
Method in brief: (§1)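 Competition binding panel of 442 non-mutant kinases: test compound at 5 and 10 μM competed with an active-site-directed ligand for 1 h with shaking. Bound kinase was eluted with 0.5 μM ligand and quantified by qPCR; %Ctrl = (compound − positive control)/(DMSO − positive control) × 100, lower meaning tighter binding.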

CDC2L5 = molecular target: T2, CDC2L5 (Homo sapiens, UniProt Q14004)
T2 construct: purchased DiscoveRx KINOMEscan
T2 sequence (Q14004 whole entry): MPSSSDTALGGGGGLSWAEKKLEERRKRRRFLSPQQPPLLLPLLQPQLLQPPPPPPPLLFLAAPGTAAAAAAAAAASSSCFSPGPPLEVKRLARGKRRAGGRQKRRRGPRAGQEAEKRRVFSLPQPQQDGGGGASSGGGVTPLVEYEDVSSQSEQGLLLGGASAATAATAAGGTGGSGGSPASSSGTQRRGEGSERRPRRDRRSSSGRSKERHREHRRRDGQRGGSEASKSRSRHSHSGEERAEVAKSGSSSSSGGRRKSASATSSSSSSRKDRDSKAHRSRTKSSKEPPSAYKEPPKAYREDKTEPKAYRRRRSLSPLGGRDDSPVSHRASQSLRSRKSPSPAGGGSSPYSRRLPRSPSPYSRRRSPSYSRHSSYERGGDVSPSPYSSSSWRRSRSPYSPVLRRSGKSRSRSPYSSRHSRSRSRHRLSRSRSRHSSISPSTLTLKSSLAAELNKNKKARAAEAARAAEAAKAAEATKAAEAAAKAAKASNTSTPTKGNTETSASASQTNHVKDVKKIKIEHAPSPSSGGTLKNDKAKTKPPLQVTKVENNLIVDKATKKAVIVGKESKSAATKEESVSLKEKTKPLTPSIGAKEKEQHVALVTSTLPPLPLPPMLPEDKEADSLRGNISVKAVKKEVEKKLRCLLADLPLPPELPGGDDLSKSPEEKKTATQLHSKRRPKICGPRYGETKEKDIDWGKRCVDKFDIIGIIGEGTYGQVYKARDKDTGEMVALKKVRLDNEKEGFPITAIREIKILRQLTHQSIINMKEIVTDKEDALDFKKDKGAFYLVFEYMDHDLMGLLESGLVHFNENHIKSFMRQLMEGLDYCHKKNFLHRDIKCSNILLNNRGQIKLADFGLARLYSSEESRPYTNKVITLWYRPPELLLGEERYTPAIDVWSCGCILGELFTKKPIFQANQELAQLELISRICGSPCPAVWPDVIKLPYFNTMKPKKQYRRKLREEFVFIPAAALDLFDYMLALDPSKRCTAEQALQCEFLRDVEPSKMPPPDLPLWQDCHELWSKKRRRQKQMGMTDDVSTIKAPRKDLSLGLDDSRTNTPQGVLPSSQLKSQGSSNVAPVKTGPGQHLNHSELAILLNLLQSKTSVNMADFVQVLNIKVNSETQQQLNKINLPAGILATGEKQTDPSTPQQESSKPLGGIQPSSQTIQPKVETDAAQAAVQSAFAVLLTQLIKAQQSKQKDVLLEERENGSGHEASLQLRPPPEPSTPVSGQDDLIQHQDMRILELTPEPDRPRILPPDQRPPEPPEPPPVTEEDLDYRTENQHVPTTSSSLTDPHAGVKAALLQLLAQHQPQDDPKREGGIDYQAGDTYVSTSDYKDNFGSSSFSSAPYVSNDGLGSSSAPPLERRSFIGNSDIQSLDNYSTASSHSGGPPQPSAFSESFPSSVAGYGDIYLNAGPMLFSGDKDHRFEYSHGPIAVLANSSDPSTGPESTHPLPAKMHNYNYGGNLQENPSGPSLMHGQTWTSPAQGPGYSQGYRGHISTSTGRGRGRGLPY
Method in brief: as §1

ROS1 = molecular target: T3, ROS1 (Homo sapiens, UniProt P08922)
T3 construct: purchased DiscoveRx KINOMEscan
Method in brief: as §1

PLK3 = molecular target: T4, PLK3 (Homo sapiens, UniProt Q9H4B4)
T4 construct: purchased DiscoveRx KINOMEscan
Method in brief: as §1

ACVR2A = molecular target: T5, ACVR2A (Homo sapiens, UniProt P27037)
T5 construct: purchased DiscoveRx KINOMEscan
T5 sequence (P27037 20-513): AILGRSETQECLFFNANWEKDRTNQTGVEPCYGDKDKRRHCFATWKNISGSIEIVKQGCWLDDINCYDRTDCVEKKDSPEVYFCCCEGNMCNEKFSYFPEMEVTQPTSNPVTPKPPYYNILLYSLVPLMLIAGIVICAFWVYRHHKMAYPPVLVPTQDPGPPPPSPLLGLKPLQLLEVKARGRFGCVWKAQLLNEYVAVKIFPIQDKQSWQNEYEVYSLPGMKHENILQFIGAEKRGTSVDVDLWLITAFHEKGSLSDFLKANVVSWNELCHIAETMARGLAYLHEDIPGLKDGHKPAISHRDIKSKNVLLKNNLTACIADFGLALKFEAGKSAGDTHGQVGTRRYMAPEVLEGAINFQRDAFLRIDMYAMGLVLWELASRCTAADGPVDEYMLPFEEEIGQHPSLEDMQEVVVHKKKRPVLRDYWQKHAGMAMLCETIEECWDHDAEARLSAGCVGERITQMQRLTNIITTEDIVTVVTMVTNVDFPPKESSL
Method in brief: as §1

CLK1 = molecular target: T6, CLK1 (Homo sapiens, UniProt P49759)
T6 construct: purchased DiscoveRx KINOMEscan
Method in brief: as §1

TLK2 = molecular target: T7, TLK2 (Homo sapiens, UniProt Q86UE8)
T7 construct: purchased DiscoveRx KINOMEscan
Method in brief: as §1

FGFR3 = molecular target: T8, FGFR3 (Homo sapiens, UniProt P22607)
T8 construct: purchased DiscoveRx KINOMEscan
Method in brief: as §1

EPHA6 = molecular target: T9, EPHA6 (Homo sapiens, UniProt Q9UF33)
T9 construct: purchased DiscoveRx KINOMEscan
Method in brief: as §1

TGFBR2 = molecular target: T10, TGFBR2 (Homo sapiens, UniProt P37173)
T10 construct: purchased DiscoveRx KINOMEscan
Method in brief: as §1

MET = molecular target: T11, MET (Homo sapiens, UniProt P08581)
T11 construct: purchased DiscoveRx KINOMEscan
Method in brief: as §1

YANK1 = molecular target: T12, YANK1 (Homo sapiens, UniProt Q8WU08)
T12 construct: purchased DiscoveRx KINOMEscan
T12 sequence (Q8WU08 whole entry): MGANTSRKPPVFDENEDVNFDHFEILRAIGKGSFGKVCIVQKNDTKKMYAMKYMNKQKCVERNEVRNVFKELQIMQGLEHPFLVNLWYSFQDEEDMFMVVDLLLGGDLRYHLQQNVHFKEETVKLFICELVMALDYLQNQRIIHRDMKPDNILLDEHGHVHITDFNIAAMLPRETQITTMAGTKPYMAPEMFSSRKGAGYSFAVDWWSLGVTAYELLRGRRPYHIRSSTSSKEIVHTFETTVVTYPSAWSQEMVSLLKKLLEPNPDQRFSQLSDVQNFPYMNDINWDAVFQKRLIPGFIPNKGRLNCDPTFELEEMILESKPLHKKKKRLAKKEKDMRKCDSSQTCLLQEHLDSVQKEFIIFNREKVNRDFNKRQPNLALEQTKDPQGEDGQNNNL
Method in brief: as §1

MARK3 = molecular target: T13, MARK3 (Homo sapiens, UniProt P27448)
T13 construct: purchased DiscoveRx KINOMEscan
T13 sequence (P27448 whole entry): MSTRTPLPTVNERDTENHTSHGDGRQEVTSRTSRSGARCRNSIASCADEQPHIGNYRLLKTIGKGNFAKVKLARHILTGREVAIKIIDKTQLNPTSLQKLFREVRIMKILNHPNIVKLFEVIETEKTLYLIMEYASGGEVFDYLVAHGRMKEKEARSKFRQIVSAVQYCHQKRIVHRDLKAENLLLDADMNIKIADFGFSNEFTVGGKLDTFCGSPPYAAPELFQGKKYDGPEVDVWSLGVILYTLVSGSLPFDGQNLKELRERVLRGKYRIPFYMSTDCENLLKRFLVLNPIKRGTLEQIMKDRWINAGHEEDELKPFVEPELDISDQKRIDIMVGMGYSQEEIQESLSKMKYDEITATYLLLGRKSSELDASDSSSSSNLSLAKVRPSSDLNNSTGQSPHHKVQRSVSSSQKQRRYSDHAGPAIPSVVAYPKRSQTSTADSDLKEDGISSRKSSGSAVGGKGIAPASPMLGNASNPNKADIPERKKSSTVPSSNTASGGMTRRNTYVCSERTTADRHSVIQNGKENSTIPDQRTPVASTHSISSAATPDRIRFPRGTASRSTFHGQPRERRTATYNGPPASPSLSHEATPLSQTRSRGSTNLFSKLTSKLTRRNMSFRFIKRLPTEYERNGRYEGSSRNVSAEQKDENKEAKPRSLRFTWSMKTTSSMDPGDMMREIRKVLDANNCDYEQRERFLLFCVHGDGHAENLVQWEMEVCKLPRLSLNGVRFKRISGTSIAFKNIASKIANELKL
Method in brief: as §1

LIMK1 = molecular target: T14, LIMK1 (Homo sapiens, UniProt P53667)
T14 construct: purchased DiscoveRx KINOMEscan
Method in brief: as §1

EPHB6 = molecular target: T15, EPHB6 (Homo sapiens, UniProt O15197)
T15 construct: purchased DiscoveRx KINOMEscan
Method in brief: as §1

CTK = molecular target: T16, CTK (Homo sapiens, UniProt P42679)
T16 construct: purchased DiscoveRx KINOMEscan
Method in brief: as §1

PCTK1 = molecular target: T17, PCTK1 (Homo sapiens, UniProt Q00536)
T17 construct: purchased DiscoveRx KINOMEscan
Method in brief: as §1

AMPK-alpha1 = molecular target: T18, AMPK-alpha1 (Homo sapiens, UniProt Q13131)
T18 construct: purchased DiscoveRx KINOMEscan
Method in brief: as §1

BRAF = molecular target: T19, BRAF (Homo sapiens, UniProt P15056)
T19 construct: purchased DiscoveRx KINOMEscan
Method in brief: as §1

MEK2 = molecular target: T20, MEK2 (Homo sapiens, UniProt P36507)
T20 construct: purchased DiscoveRx KINOMEscan
Method in brief: as §1

NEK9 = molecular target: T21, NEK9 (Homo sapiens, UniProt Q8TD19)
T21 construct: purchased DiscoveRx KINOMEscan
Method in brief: as §1

NDR1 = molecular target: T22, NDR1 (Homo sapiens, UniProt Q15208)
T22 construct: purchased DiscoveRx KINOMEscan
T22 sequence (Q15208 whole entry): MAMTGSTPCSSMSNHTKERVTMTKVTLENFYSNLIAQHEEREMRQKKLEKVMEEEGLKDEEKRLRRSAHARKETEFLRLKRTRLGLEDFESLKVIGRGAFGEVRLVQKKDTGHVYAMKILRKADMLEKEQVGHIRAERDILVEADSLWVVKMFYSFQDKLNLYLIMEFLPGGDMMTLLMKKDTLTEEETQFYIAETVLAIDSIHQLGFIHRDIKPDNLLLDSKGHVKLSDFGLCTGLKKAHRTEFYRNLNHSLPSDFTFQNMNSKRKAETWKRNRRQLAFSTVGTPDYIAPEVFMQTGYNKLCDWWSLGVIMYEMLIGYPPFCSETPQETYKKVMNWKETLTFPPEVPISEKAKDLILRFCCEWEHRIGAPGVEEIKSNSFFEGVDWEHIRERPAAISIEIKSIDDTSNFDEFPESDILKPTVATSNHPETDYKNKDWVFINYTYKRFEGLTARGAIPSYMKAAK
Method in brief: as §1

CSNK1A1L = molecular target: T23, CSNK1A1L (Homo sapiens, UniProt Q8N752)
T23 construct: purchased DiscoveRx KINOMEscan
Method in brief: as §1

CLK3 = molecular target: T24, CLK3 (Homo sapiens, UniProt P49761)
T24 construct: purchased DiscoveRx KINOMEscan
Method in brief: as §1

DRAK2 = molecular target: T25, DRAK2 (Homo sapiens, UniProt O94768)
T25 construct: purchased DiscoveRx KINOMEscan
Method in brief: as §1

p38-gamma = molecular target: T26, p38-gamma (Homo sapiens, UniProt P53778)
T26 construct: purchased DiscoveRx KINOMEscan
T26 sequence (P53778 whole entry): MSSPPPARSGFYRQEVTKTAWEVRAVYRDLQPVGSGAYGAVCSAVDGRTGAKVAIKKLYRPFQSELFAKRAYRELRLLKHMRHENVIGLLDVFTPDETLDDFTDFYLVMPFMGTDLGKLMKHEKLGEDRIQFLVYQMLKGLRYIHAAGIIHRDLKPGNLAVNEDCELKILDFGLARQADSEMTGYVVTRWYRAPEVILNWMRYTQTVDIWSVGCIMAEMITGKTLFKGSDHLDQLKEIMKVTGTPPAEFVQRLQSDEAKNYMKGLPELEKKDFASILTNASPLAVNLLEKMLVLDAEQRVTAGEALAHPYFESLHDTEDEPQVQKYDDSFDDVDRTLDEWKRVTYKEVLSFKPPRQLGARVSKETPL
Method in brief: as §1

PLK4 = molecular target: T27, PLK4 (Homo sapiens, UniProt O00444)
T27 construct: purchased DiscoveRx KINOMEscan
T27 sequence (O00444 whole entry): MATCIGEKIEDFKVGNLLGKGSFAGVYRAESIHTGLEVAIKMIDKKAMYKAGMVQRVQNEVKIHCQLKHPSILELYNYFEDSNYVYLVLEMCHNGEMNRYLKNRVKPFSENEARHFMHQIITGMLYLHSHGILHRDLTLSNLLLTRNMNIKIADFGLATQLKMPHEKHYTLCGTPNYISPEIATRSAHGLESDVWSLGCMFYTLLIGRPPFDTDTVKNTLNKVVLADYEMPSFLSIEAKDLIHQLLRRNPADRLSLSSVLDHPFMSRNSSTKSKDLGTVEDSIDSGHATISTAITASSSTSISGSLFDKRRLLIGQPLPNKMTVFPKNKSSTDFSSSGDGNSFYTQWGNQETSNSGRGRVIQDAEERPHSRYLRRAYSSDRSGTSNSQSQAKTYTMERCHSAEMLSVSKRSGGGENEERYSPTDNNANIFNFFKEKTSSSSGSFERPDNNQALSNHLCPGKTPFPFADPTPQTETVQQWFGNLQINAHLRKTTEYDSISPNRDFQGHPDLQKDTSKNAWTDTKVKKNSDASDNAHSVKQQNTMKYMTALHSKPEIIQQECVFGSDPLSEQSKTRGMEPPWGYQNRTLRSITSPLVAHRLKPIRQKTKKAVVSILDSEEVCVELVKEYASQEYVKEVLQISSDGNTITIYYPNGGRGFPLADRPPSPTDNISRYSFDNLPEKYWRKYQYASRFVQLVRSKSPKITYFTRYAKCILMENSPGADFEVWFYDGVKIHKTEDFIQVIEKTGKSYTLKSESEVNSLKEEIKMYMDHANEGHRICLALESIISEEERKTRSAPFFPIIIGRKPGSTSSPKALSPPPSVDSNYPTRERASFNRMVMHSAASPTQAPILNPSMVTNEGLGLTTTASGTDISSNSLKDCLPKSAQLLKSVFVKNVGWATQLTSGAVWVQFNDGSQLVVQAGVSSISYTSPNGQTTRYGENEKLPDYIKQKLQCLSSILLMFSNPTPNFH
Method in brief: as §1

PKN2 = molecular target: T28, PKN2 (Homo sapiens, UniProt Q16513)
T28 construct: purchased DiscoveRx KINOMEscan
Method in brief: as §1

PIM1 = molecular target: T29, PIM1 (Homo sapiens, UniProt P11309)
T29 construct: purchased DiscoveRx KINOMEscan
Method in brief: as §1

NEK2 = molecular target: T30, NEK2 (Homo sapiens, UniProt P51955)
T30 construct: purchased DiscoveRx KINOMEscan
Method in brief: as §1

INSRR = molecular target: T31, INSRR (Homo sapiens, UniProt P14616)
T31 construct: purchased DiscoveRx KINOMEscan
Method in brief: as §1

## Cc1ccc(C2=Nc3cccnc3S(=O)(=O)c3ccccc32)cc1 [TBPT, 6-(p-tolyl)benzo[f] pyrido[2,3-b][1,4] thiazepine 11,11-dioxide]
CDK3; 5 μM
  remaining binding at 5 µM: 100%
CDK3; 10 μM
  remaining binding at 10 µM: 100%
CDC2L5; 5 μM
  remaining binding at 5 µM: 100%
CDC2L5; 10 μM
  remaining binding at 10 µM: 97%
ROS1; 5 μM
  remaining binding at 5 µM: 100%
ROS1; 10 μM
  remaining binding at 10 µM: 100%
PLK3; 5 μM
  remaining binding at 5 µM: 95%
PLK3; 10 μM
  remaining binding at 10 µM: 75%
ACVR2A; 5 μM
  remaining binding at 5 µM: 100%
ACVR2A; 10 μM
  remaining binding at 10 µM: 93%
CLK1; 5 μM
  remaining binding at 5 µM: 95%
CLK1; 10 μM
  remaining binding at 10 µM: 100%
TLK2; 5 μM
  remaining binding at 5 µM: 100%
TLK2; 10 μM
  remaining binding at 10 µM: 100%
FGFR3; 5 μM
  remaining binding at 5 µM: 89%
FGFR3; 10 μM
  remaining binding at 10 µM: 100%
EPHA6; 5 μM
  remaining binding at 5 µM: 98%
EPHA6; 10 μM
  remaining binding at 10 µM: 92%
TGFBR2; 5 μM
  remaining binding at 5 µM: 100%
TGFBR2; 10 μM
  remaining binding at 10 µM: 81%
MET; 5 μM
  remaining binding at 5 µM: 100%
MET; 10 μM
  remaining binding at 10 µM: 92%
YANK1; 5 μM
  remaining binding at 5 µM: 96%
YANK1; 10 μM
  remaining binding at 10 µM: 100%
MARK3; 5 μM
  remaining binding at 5 µM: 96%
MARK3; 10 μM
  remaining binding at 10 µM: 87%
LIMK1; 5 μM
  remaining binding at 5 µM: 100%
LIMK1; 10 μM
  remaining binding at 10 µM: 100%
EPHB6; 5 μM
  remaining binding at 5 µM: 99%
EPHB6; 10 μM
  remaining binding at 10 µM: 100%
CTK; 5 μM
  remaining binding at 5 µM: 94%
CTK; 10 μM
  remaining binding at 10 µM: 100%
PCTK1; 5 μM
  remaining binding at 5 µM: 90%
PCTK1; 10 μM
  remaining binding at 10 µM: 100%
AMPK-alpha1; 5 μM
  remaining binding at 5 µM: 100%
AMPK-alpha1; 10 μM
  remaining binding at 10 µM: 100%
BRAF; 5 μM
  remaining binding at 5 µM: 100%
BRAF; 10 μM
  remaining binding at 10 µM: 100%
MEK2; 5 μM
  remaining binding at 5 µM: 92%
MEK2; 10 μM
  remaining binding at 10 µM: 100%
NEK9; 5 μM
  remaining binding at 5 µM: 100%
NEK9; 10 μM
  remaining binding at 10 µM: 88%
NDR1; 5 μM
  remaining binding at 5 µM: 100%
NDR1; 10 μM
  remaining binding at 10 µM: 87%
CSNK1A1L; 5 μM
  remaining binding at 5 µM: 100%
CSNK1A1L; 10 μM
  remaining binding at 10 µM: 91%
CLK3; 5 μM
  remaining binding at 5 µM: 100%
CLK3; 10 μM
  remaining binding at 10 µM: 100%
DRAK2; 5 μM
  remaining binding at 5 µM: 100%
DRAK2; 10 μM
  remaining binding at 10 µM: 91%
p38-gamma; 5 μM
  remaining binding at 5 µM: 100%
p38-gamma; 10 μM
  remaining binding at 10 µM: 88%
PLK4; 5 μM
  remaining binding at 5 µM: 100%
PLK4; 10 μM
  remaining binding at 10 µM: 92%
PKN2; 5 μM
  remaining binding at 5 µM: 100%
PKN2; 10 μM
  remaining binding at 10 µM: 95%
PIM1; 5 μM
  remaining binding at 5 µM: 91%
PIM1; 10 μM
  remaining binding at 10 µM: 90%
NEK2; 5 μM
  remaining binding at 5 µM: 92%
NEK2; 10 μM
  remaining binding at 10 µM: 81%
INSRR; 5 μM
  remaining binding at 5 µM: 100%
INSRR; 10 μM
  remaining binding at 10 µM: 100%
